How the values were obtained:
[1] = target: Histone deacetylase 1 (Homo sapiens, UniProt Q13547); test: Inhibition of HDAC1 (unknown origin) assessed as release of 7-amino-4-methylcoumarin incubated in room temperature for 15 min measured by Spectra max microtitre plate reader
[2] = target: Adenosine receptor A2a (Homo sapiens, UniProt P29274); test: Displacement of [3H]SCH58261 from adenosine A2A receptor membrane (unknown origin) measured after 60 mins by scintillation counting analysis; type: cell membranes
Sequence of Adenosine receptor A2a (P29274 whole entry): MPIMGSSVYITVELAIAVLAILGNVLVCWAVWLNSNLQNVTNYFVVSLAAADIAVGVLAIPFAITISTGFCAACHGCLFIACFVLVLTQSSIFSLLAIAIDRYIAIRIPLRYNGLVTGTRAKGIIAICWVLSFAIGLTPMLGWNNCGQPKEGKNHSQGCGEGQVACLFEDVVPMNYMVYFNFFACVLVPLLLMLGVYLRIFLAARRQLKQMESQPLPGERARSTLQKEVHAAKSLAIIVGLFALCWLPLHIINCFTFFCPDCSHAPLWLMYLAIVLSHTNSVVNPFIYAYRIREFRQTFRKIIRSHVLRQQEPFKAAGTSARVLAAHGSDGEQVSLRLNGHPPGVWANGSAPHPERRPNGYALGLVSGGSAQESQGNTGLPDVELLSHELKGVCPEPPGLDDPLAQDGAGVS

[3] = target: T1, Protein deacetylase HDAC6 (Homo sapiens, UniProt Q9UBN7); test: Inhibition of HDAC6 (unknown origin) assessed as release of 7-amino-4-methylcoumarin incubated in room temperature for 15 min measured by Spectra max microtitre plate reader
T1 sequence (Q9UBN7 whole entry): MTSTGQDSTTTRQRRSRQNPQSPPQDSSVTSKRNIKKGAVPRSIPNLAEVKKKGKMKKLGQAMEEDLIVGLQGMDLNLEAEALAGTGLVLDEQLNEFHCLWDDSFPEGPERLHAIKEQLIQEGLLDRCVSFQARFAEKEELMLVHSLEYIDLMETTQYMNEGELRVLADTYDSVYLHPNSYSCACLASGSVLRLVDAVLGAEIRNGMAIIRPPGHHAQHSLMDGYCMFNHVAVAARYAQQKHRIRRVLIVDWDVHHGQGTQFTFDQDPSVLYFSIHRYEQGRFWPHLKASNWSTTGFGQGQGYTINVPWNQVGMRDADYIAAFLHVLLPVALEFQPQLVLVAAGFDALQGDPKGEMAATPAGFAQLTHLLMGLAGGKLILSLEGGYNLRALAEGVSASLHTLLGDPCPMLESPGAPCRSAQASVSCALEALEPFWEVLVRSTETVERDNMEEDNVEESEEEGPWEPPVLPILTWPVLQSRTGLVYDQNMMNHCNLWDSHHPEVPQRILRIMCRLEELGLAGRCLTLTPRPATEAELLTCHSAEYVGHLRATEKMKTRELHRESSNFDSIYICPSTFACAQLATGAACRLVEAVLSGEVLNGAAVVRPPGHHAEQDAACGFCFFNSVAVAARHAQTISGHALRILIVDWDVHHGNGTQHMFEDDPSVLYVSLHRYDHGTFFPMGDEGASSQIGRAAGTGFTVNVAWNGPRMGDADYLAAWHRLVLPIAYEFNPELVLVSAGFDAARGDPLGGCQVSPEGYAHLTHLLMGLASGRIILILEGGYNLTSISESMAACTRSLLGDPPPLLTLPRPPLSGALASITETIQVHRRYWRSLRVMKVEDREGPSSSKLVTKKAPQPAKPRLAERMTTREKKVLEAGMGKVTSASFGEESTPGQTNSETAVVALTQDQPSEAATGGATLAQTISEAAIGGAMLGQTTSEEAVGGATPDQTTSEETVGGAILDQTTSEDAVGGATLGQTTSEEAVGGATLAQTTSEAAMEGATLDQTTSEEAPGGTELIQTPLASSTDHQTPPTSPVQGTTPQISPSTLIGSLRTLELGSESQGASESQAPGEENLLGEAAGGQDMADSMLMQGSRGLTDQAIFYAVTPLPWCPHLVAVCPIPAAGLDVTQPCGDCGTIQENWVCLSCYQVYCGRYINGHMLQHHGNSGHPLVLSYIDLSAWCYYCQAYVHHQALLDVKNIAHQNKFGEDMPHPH

[4] = test system: CT26; test: Antiproliferative activity against mouse CT26 cells measured after 72 hrs by CCK8 assay; type: functional
[5] = test system: MC-38; test: Antiproliferative activity against mouse MC38 cells measured after 72 hrs by CCK8 assay; type: functional

Sequence of Histone deacetylase 1 (Q13547 whole entry): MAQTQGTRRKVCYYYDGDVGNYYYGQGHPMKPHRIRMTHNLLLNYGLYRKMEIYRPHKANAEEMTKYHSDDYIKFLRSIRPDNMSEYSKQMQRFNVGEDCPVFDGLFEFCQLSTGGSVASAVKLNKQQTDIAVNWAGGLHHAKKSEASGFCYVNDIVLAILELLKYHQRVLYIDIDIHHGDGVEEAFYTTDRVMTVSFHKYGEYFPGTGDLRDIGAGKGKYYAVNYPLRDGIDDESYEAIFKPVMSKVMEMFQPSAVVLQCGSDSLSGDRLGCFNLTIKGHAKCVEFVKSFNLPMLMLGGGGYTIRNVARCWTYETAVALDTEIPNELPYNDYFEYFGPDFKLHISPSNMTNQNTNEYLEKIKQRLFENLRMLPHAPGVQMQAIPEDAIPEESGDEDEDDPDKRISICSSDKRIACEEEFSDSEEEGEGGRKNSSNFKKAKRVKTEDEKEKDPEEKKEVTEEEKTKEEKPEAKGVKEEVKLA

Row | Structure (SMILES) | IC50 [1] | Ki [2] | IC50 [3] | GI50 ([4]; Mus musculus, CT26) | GI50 ([5]; Mus musculus, MC-38) | GI50 [4] | GI50 [5]
1 | Nc1nc(NCc2ccc(C(=O)NO)cc2)nc2nc(-c3ccco3)nn12 | 21.5 nM | 84.8 nM | 3 nM | – | – | – | –
2 | Nc1nc2c(cnn2CCN2CCc3ccc(C(=O)NO)cc3C2)c2nc(-c3ccco3)nn12 | 399 nM | 5.6 nM | 80 nM | – | – | – | –
3 | Nc1ccccc1NC(=O)c1ccc(CNc2nc(N)n3nc(-c4ccco4)nc3n2)cc1 | 65.7 nM | 34.8 nM | > 10000 nM | 16500 nM | 14100 nM | – | –
4 | Nc1nc(N2CCN(CCc3ccc(C(=O)NO)cc3)CC2)nc2nc(-c3ccco3)nn12 | 220 nM | 4.2 nM | 19 nM | > 100000 nM | > 100000 nM | – | –
5 | Nc1ccccc1NC(=O)c1ccc(CCCn2ncc3c2nc(N)n2nc(-c4ccco4)nc32)cc1 | 203 nM | 3.3 nM | – | > 100000 nM | > 100000 nM | – | –
6 | CCN(CCc1ccc(C(=O)NO)cc1)c1nc(N)n2nc(-c3ccco3)nc2n1 | 175 nM | 2.4 nM | 22 nM | – | – | – | –
7 | Nc1nc2c(cnn2CCN2CCC(c3ccc(C(=O)NO)cc3)CC2)c2nc(-c3ccco3)nn12 | 84 nM | 3.7 nM | 32 nM | 11900 nM | 16900 nM | – | –
8 | Nc1cc(F)ccc1NC(=O)c1ccc(CCNc2nc(N)n3nc(-c4ccco4)nc3n2)cc1 | 173 nM | 9.6 nM | > 10000 nM | 44000 nM | 25900 nM | – | –
9 | Nc1ccccc1NC(=O)c1ccc(CNc2nccc(-c3cccnc3)n2)cc1 [MOCETINOSTAT] | – | – | – | 1800 nM | 21000 nM | – | –
10 | Nc1nc(NCc2ccc(OCCCCC(=O)NO)cc2)nc2nc(-c3ccco3)nn12 | 162 nM | 19.9 nM | 35 nM | – | – | – | –
11 | Nc1ccccc1NC(=O)c1ccc(OCCn2ncc3c2nc(N)n2nc(-c4ccco4)nc32)cc1 | 279 nM | 43.7 nM | – | 8800 nM | 7100 nM | – | –
12 | Nc1nc(NCCOc2ccc(C(=O)NO)cc2)nc2nc(-c3ccco3)nn12 | 7.4 nM | 10.2 nM | 3.2 nM | > 100000 nM | > 100000 nM | – | –
13 | Nc1nc(NCCc2ccc(C(=O)NO)cc2)nc2nc(-c3ccco3)nn12 | 104 nM | 6.3 nM | 14.8 nM | > 100000 nM | > 100000 nM | – | –
14 | Nc1cc(F)ccc1NC(=O)c1ccc(CCCn2ncc3c2nc(N)n2nc(-c4ccco4)nc32)cc1 | 2680 nM | 10.1 nM | – | – | – | – | –
15 | Nc1ccccc1NC(=O)c1ccc(OCCNc2nc(N)n3nc(-c4ccco4)nc3n2)cc1 | 68.5 nM | 4.9 nM | > 10000 nM | 32400 nM | 36900 nM | – | –
16 | Cc1ccc(-c2nc3c4cnn(CCc5ccc(C(=O)Nc6ccccc6N)cc5)c4nc(N)n3n2)o1 | 126 nM | 18.5 nM | – | > 100000 nM | > 100000 nM | – | –
17 | Nc1ccccc1NC(=O)c1ccc(Cn2ncc3c2nc(N)n2nc(-c4ccco4)nc32)cc1 | 53 nM | 86.9 nM | > 10000 nM | – | – | – | –
18 | O=C(CCCCCCC(=O)Nc1ccccc1)NO [VORINOSTAT] | – | – | – | – | – | 2700 nM | 2400 nM

Row | Structure (SMILES) | IC50 [1] | Ki [2] | IC50 [3] | GI50 ([4]; Mus musculus, CT26) | GI50 ([5]; Mus musculus, MC-38) | GI50 [4] | GI50 [5]
19 | Nc1nc(NCCCc2ccc(C(=O)NO)cc2)nc2nc(-c3ccco3)nn12 | 23.7 nM | 8.4 nM | 4.9 nM | > 100000 nM | > 100000 nM | – | –
20 | Nc1nc2c(cnn2CCc2ccc(OCCCCCC(=O)NO)cc2)c2nc(-c3ccco3)nn12 | 81 nM | 2 nM | 16 nM | – | – | – | –
21 | Nc1ccccc1NC(=O)c1ccc(CCn2ccc3c2nc(N)n2nc(-c4ccco4)nc32)cc1 | 90 nM | 0.87 nM | – | > 100000 nM | > 100000 nM | – | –
22 | CN(CCOc1ccc(C(=O)NO)cc1)c1nc(N)n2nc(-c3ccco3)nc2n1 | 21.5 nM | 15.7 nM | 18 nM | > 100000 nM | > 100000 nM | – | –
23 | Nc1nc2c(cnn2CCN2Cc3ccc(C(=O)NO)cc3C2)c2nc(-c3ccco3)nn12 | > 10000 nM | 60.4 nM | – | – | – | – | –
24 | Nc1nc(NCCc2ccc(OCCCCC(=O)NO)cc2)nc2nc(-c3ccco3)nn12 | 102 nM | 5.8 nM | 37 nM | – | – | – | –
25 | Nc1nc(NCCc2ccc(NC(=O)CCCCCCC(=O)NO)cc2)nc2nc(-c3ccco3)nn12 | 11.5 nM | 11.3 nM | 5.9 nM | > 100000 nM | > 100000 nM | – | –
26 | Nc1nc2c(cnn2CCc2ccc(NC(=O)CCCCCCC(=O)NO)cc2)c2nc(-c3ccco3)nn12 | 8 nM | 4.9 nM | 5.9 nM | > 100000 nM | > 100000 nM | – | –
27 | Nc1nc(NCCc2ccc(O)cc2)nc2nc(-c3ccco3)nn12 [ZM-241385] | > 10000 nM | – | > 1000 nM | – | – | – | –
28 | Nc1ccccc1NC(=O)c1ccc(CCCNc2nc(N)n3nc(-c4ccco4)nc3n2)cc1 | 59.5 nM | 3.9 nM | > 10000 nM | 25200 nM | 25400 nM | – | –
29 | Nc1nc(NCCc2ccc(OCCCCCC(=O)NO)cc2)nc2nc(-c3ccco3)nn12 | 86.7 nM | 0.95 nM | 8 nM | 25900 nM | 15000 nM | – | –
30 | Nc1nc(NCCc2ccc(OCCCC(=O)NO)cc2)nc2nc(-c3ccco3)nn12 | 108 nM | 6 nM | 132 nM | – | – | – | –
31 | Nc1nc(NCCc2ccc(/C=C/C(=O)NO)cc2)nc2nc(-c3ccco3)nn12 | 10.2 nM | 37.8 nM | 69 nM | 42900 nM | 40500 nM | – | –
32 | Nc1cc(F)ccc1NC(=O)c1ccc(CCn2ncc3c2nc(N)n2nc(-c4ccco4)nc32)cc1 | 228 nM | 2.8 nM | – | 11200 nM | 10800 nM | – | –
33 | Nc1nc2c(cnn2CCCCC(=O)NO)c2nc(-c3ccco3)nn12 | 486 nM | 82.8 nM | 74 nM | – | – | – | –
34 | Nc1nc2c(cnn2CCCCCC(=O)NO)c2nc(-c3ccco3)nn12 | 27 nM | 77.8 nM | 15 nM | 17800 nM | 14000 nM | – | –
35 | Nc1nc(NCc2ccc(/C=C/C(=O)NO)cc2)nc2nc(-c3ccco3)nn12 | 5 nM | 27 nM | 9 nM | 17500 nM | 20700 nM | – | –
